These results are taken from ChEMBL document CHEMBL1201862, “PubChem BioAssay data set” (2004).

Some test systems named below: UACC-62; ACHN; PC-3; MDA-MB-435; SF-268; CAKI-1; HOP-62; HOP-92; SNB-19; HCC 2998; SK-MEL-5; RPMI-8226; BT-549; T47D; TK-10; SF-295; Hs-578T; SN12C; NCI/ADR-RES; 786-0.
Common to all, as to assay: inhibition of tumour cell growth, NCI panel, 48 h

Each structure is given as a SMILES string.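 How tested: cells in 96-well plates exposed to compound for 48 hours at five concentrations. GI50 = concentration required for 50% inhibition of growth.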 The source made the active and inactive calls. Rule as the data show it: active = GI50 up to about 1.1 µM and inactive = higher.

`S=C(N/N=C(\c1ccccc1)c1ccccn1)NC1CCCCC1`: the GI50 in the assay with UACC-62 was > 29.8 µM (inactive); with ACHN it was 0.571 µM (active); with PC-3, 1.4 µM (inactive); with MDA-MB-435, 31.6 µM (inactive); with SF-268 it was 2.66 µM (inactive); in the assay with CAKI-1, 0.834 µM (active). Moreover, the GI50 is 12.2 µM (inactive) in the assay on HOP-62; > 100 µM (inactive) with HOP-92; 39.7 µM (inactive) with SNB-19; > 61.4 µM (inactive) with HCC 2998; 13.1 µM (inactive) in the assay with SK-MEL-5; 2.16 µM (inactive) in the assay with RPMI-8226. The GI50 is 23.4 µM (inactive) with BT-549; 3.48 µM (inactive) with T47D; 0.849 µM (active) in the assay with TK-10; 26.5 µM (inactive) in the assay on SF-295; > 35 µM (inactive) in the assay on Hs-578T; 0.804 µM (active) with SN12C. In addition, the values for the GI50 in the assay with NCI/ADR-RES and in the assay with 786-0 were 0.423 µM (active) and 18 µM (inactive), respectively.
As to `CCCCCCCCCCCCCC(=O)OC(/C=C/C(C)C)C(O)C(O)C(OC)C(=O)NC1CCCCNC1=O` (stereo not given), the GI50 with UACC-62 is 0.697 µM (active); in the assay on ACHN, 0.689 µM (active); in the assay on PC-3 it was > 10 µM (inactive); in the assay with MDA-MB-435, 5.97 µM (inactive); with SF-268 it was 1.52 µM (inactive); with CAKI-1, 0.48 µM (active). Also, the GI50 was 1.61 µM (inactive) in the assay with HOP-62; 1.17 µM (inactive) in the assay on HOP-92; 0.815 µM (active) in the assay on SNB-19; 0.574 µM (active) in the assay on HCC 2998; 1.9 µM (inactive) with SK-MEL-5; 2.79 µM (inactive) in the assay with RPMI-8226. For the same molecule, the GI50 in the assay on BT-549 is > 10 µM (inactive); in the assay on T47D it was > 10 µM (inactive); in the assay on TK-10, 5.6 µM (inactive); in the assay on SF-295, 0.721 µM (active); in the assay with Hs-578T, 9.79 µM (inactive); in the assay with SN12C, 0.579 µM (active). The GI50 in the assay on NCI/ADR-RES was > 10 µM (inactive); in the assay on 786-0 it was 0.308 µM (active).
As to `COC(=O)Cc1ccc(Oc2nc3ccccc3nc2-c2cccs2)cc1`, the GI50 in the assay on UACC-62 was > 100 µM (inactive); in the assay with ACHN it was > 100 µM (inactive); in the assay on PC-3, > 100 µM (inactive); with MDA-MB-435, > 100 µM (inactive); with SF-268, 36 µM (inactive); with CAKI-1, > 100 µM (inactive). For the same molecule, the GI50 in the assay on HOP-62 is 38.5 µM (inactive); with HOP-92 it was 24.2 µM (inactive); in the assay with SNB-19 it was 40.8 µM (inactive); in the assay on HCC 2998, > 100 µM (inactive); in the assay on SK-MEL-5, > 100 µM (inactive); in the assay with RPMI-8226, > 100 µM (inactive). In addition, the GI50 with BT-549 was 57.8 µM (inactive); in the assay on T47D it was > 100 µM (inactive); in the assay with TK-10, 95.9 µM (inactive); in the assay on SF-295, 30.8 µM (inactive); in the assay with Hs-578T it was 39.8 µM (inactive); in the assay on SN12C it was > 100 µM (inactive). Moreover, the figures for the GI50 in the assay on NCI/ADR-RES and in the assay with 786-0 were 79.4 µM (inactive) and 40.7 µM (inactive), respectively.
As to `CC1=NN(c2ccc(C)cc2)C2(C1)SCC(=O)N2c1nc2ccccc2s1` (stereo not given), the GI50 was 14.3 µM (inactive) with UACC-62; 15.6 µM (inactive) with ACHN; 20.5 µM (inactive) with PC-3; 16.4 µM (inactive) in the assay on MDA-MB-435; 20.2 µM (inactive) in the assay with SF-268; 31 µM (inactive) in the assay on CAKI-1. Besides, the GI50 with HOP-62 is 16.9 µM (inactive); in the assay on HOP-92, 49.3 µM (inactive); with SNB-19, 33.1 µM (inactive); in the assay with HCC 2998 it was 22.9 µM (inactive); in the assay on SK-MEL-5 it was 11.4 µM (inactive); with RPMI-8226, 17.7 µM (inactive). In addition, the GI50 in the assay on BT-549 was 24.2 µM (inactive); in the assay with T47D it was 11.8 µM (inactive); with TK-10 it was 28 µM (inactive); in the assay on SF-295 it was 13 µM (inactive); with Hs-578T, 32.1 µM (inactive); with SN12C, 11.2 µM (inactive). The GI50 in the assay with NCI/ADR-RES is 16.2 µM (inactive); in the assay on 786-0 it was 20.1 µM (inactive).
`COC(=O)/C=C\C(C#N)(C#N)/N=C/c1ccc(Br)cc1`: the GI50 in the assay with UACC-62 was 11.3 µM (inactive); in the assay on ACHN it was 2.97 µM (inactive); in the assay on PC-3, 13.4 µM (inactive); with MDA-MB-435, 7 µM (inactive); in the assay on SF-268, 15.5 µM (inactive); in the assay on CAKI-1 it was 2.66 µM (inactive). For the same molecule, the GI50 with HOP-62 was 16.7 µM (inactive); in the assay on HOP-92, 1.99 µM (inactive); in the assay with SNB-19, 2.74 µM (inactive); with HCC 2998, 16.9 µM (inactive); with SK-MEL-5, 1.5 µM (inactive); in the assay on RPMI-8226, 2.38 µM (inactive). For the same molecule, the GI50 in the assay on BT-549 is 11.2 µM (inactive); in the assay with T47D, 3.63 µM (inactive); in the assay on TK-10 it was 2.45 µM (inactive); in the assay on SF-295, 18.2 µM (inactive); in the assay with Hs-578T, 17.6 µM (inactive); in the assay with SN12C it was 5.42 µM (inactive). In addition, the GI50 in the assay with NCI/ADR-RES is 20.2 µM (inactive); in the assay on 786-0, 1.02 µM (active).
On to `O=C(N1CCN(c2ccccc2)CC1)N(C(=O)C1(c2ccc(Cl)cc2)CCCC1)S(=O)(=O)c1ccccc1`, for which the GI50 in the assay with UACC-62 was 20.6 µM (inactive); with ACHN, 14 µM (inactive); with PC-3, 26.6 µM (inactive); in the assay with MDA-MB-435, 43.8 µM (inactive); in the assay with SF-268 it was 39.9 µM (inactive); with CAKI-1 it was 26.5 µM (inactive). In addition, the GI50 in the assay on HOP-62 is 29.1 µM (inactive); in the assay on HOP-92, 32.8 µM (inactive); in the assay on SNB-19, 28.1 µM (inactive); in the assay with HCC 2998, 23.9 µM (inactive); with SK-MEL-5, 19.9 µM (inactive); with RPMI-8226, 38.3 µM (inactive). For the same molecule, the GI50 is 27.8 µM (inactive) in the assay with BT-549; 27.7 µM (inactive) with T47D; 41.4 µM (inactive) in the assay with TK-10; 24.6 µM (inactive) in the assay on SF-295; 29.8 µM (inactive) in the assay on Hs-578T; 28.3 µM (inactive) with SN12C. Moreover, the GI50 in the assay with NCI/ADR-RES was 23.7 µM (inactive); with 786-0, 34.5 µM (inactive).
For the molecule `CC(C)(C)OC(=O)N1C(OP(=O)(Oc2ccccc2)Oc2ccccc2)=COc2cccnc21`, the GI50 is 64.6 µM (inactive) in the assay with UACC-62; 29.9 µM (inactive) in the assay on ACHN; 84.5 µM (inactive) in the assay with PC-3; 39.4 µM (inactive) with MDA-MB-435; 63.2 µM (inactive) in the assay with SF-268; 40.3 µM (inactive) with CAKI-1. Also, the GI50 in the assay on HOP-62 is 60.5 µM (inactive); with HOP-92 it was 26.1 µM (inactive); in the assay on SNB-19, 78.9 µM (inactive); in the assay with HCC 2998, 42.1 µM (inactive); with SK-MEL-5, 18.4 µM (inactive); in the assay with RPMI-8226 it was 21.8 µM (inactive). Besides, the GI50 in the assay with BT-549 is 63.7 µM (inactive); with T47D it was 23 µM (inactive); in the assay on TK-10, 31 µM (inactive); with SF-295, 34.7 µM (inactive); in the assay on Hs-578T, 86.5 µM (inactive); with SN12C, 70.1 µM (inactive). Moreover, the results for the GI50 in the assay with NCI/ADR-RES and with 786-0 were 40.7 µM (inactive) and 94.6 µM (inactive), respectively.
`Cc1cc(C)nc(NS(=O)(=O)c2ccc(NNC(=O)c3cccc4c(NNc5ccc(S(=O)(=O)Nc6nc(C)cc(C)n6)cc5)c5ccccc5nc34)cc2)n1`: the GI50 was 18.5 µM (inactive) in the assay on UACC-62; 17.3 µM (inactive) in the assay with ACHN; 24.3 µM (inactive) in the assay on PC-3; 20.9 µM (inactive) in the assay on MDA-MB-435; 20.7 µM (inactive) with SF-268; 18.8 µM (inactive) in the assay with CAKI-1. Further, the GI50 with HOP-62 was 27.8 µM (inactive); in the assay on HOP-92 it was 17.8 µM (inactive); in the assay with SNB-19, 24.5 µM (inactive); with HCC 2998 it was 21.4 µM (inactive); in the assay with SK-MEL-5, 16.9 µM (inactive); in the assay with RPMI-8226, 25.6 µM (inactive). Also, the GI50 in the assay on BT-549 is 24.7 µM (inactive); in the assay on T47D, 19.5 µM (inactive); with TK-10, 35.5 µM (inactive); with SF-295 it was 31.8 µM (inactive); with Hs-578T, 23.4 µM (inactive); in the assay with SN12C, 31.1 µM (inactive). For the same molecule, the GI50 in the assay with NCI/ADR-RES is 68.5 µM (inactive); in the assay with 786-0, 21.8 µM (inactive).
On to `CN(C)CC1=Nc2cccc3cccc(c23)N1`, for which the GI50 in the assay with UACC-62 is 16.1 µM (inactive); with ACHN, 14.9 µM (inactive); in the assay with PC-3, 17 µM (inactive); in the assay on MDA-MB-435, 20.2 µM (inactive); in the assay on SF-268, 18.9 µM (inactive); with CAKI-1, 21.5 µM (inactive). The GI50 in the assay on HOP-62 was > 100 µM (inactive); in the assay on HOP-92, 18.8 µM (inactive); with SNB-19, > 100 µM (inactive); in the assay with HCC 2998 it was 17.2 µM (inactive); with SK-MEL-5, 15.4 µM (inactive); in the assay with RPMI-8226 it was 3.3 µM (inactive). For the same molecule, the GI50 in the assay with BT-549 was 17.6 µM (inactive); with T47D, 6.11 µM (inactive); in the assay with TK-10, 18.4 µM (inactive); in the assay on SF-295, > 100 µM (inactive); in the assay on Hs-578T, 34.7 µM (inactive); in the assay on SN12C, 16.8 µM (inactive). For the same molecule, the GI50 is 33.7 µM (inactive) in the assay on NCI/ADR-RES and 12.4 µM (inactive) in the assay on 786-0.
Regarding `COc1ccc2nc3ccccc3c(NCCCCCN(CCCl)CCCl)c2c1`, the GI50 in the assay with UACC-62 is 0.036 µM (active); in the assay with ACHN, 0.0266 µM (active); in the assay on PC-3 it was 0.0469 µM (active); in the assay on MDA-MB-435, 0.17 µM (active); in the assay with SF-268 it was 0.0383 µM (active); in the assay with CAKI-1, 0.0542 µM (active). For the same molecule, the GI50 with HOP-62 is 0.0776 µM (active); with HOP-92, 0.04 µM (active); in the assay with SNB-19, 0.0427 µM (active); in the assay on HCC 2998, 0.108 µM (active); in the assay with SK-MEL-5, 0.119 µM (active); in the assay with RPMI-8226, 0.0317 µM (active). Besides, the GI50 was 0.643 µM (active) in the assay on BT-549; < 0.01 µM (active) in the assay on T47D; 0.381 µM (active) with TK-10; 0.0255 µM (active) in the assay on SF-295; 0.358 µM (active) with Hs-578T; 0.0283 µM (active) in the assay with SN12C. For the same molecule, the GI50 in the assay on NCI/ADR-RES was 0.0399 µM (active); in the assay with 786-0 it was 0.0218 µM (active).
